Literature values as cited in patent US20110312981A1, “PREDICTIVE MARKER FOR EGFR INHIBITOR TREATMENT” (priority 2007, published 2011).

Assays:
[1] = system: NSCLC patients for whom standard therapy for advanced disease has failed; conditions: single agent, versus placebo, BR.21
[2] = patients with cancer receiving the 150 mg/day dose
[3] = system: patients with NSCLC; conditions: second line after cisplatin-based first-line regimens failed; ECOG 0, 1 or 2; versus best supportive care
[4] = system: NSCLC; conditions: second line therapy of NSCLC

C#Cc1cccc(Nc2ncnc3cc(OCCOC)c(OCCOC)cc23)c1 [Tarceva, erlotinib]
survival [1]: significantly prolongs and improves the survival
drug levels in plasma [2]: > 500 ng/mL

CC(=O)O[C@@]12CO[C@@H]1C[C@H](O)[C@@]1(C)C(=O)[C@H](O)C3=C(C)[C@@H](OC(=O)[C@H](O)[C@@H](NC(=O)OC(C)(C)C)c4ccccc4)C[C@@](O)([C@@H](OC(=O)c4ccccc4)[C@H]21)C3(C)C [docetaxel]
survival [3]: improved survival

Nc1nc2[nH]cc(CCc3ccc(C(=O)N[C@@H](CCC(=O)O)C(=O)O)cc3)c2c(=O)[nH]1 [pemetrexed]
efficacy compared with docetaxel [4]: clinically equivalent efficacy
side effects compared with docetaxel [4]: significantly fewer side effects
